PubChem BioAssay AID520 (NMMLSC, 2006)
Active and inactive are the calls of the source. No rule for the calls is given here.

Biological target: N-formyl peptide receptor 2 (Homo sapiens) (UniProt P25090)
Assay: FPRL1 binding inhibitor potency, dose response, cell-based, FPR counter-screen, fluorescent ligand (AID 520)
Conditions: FPRL1-expressing cells, fluorescent ligand binding inhibition; for Ki: measured here: FPRL1 binding Ki

Sequence of N-formyl peptide receptor 2 (Homo sapiens) (P25090 whole entry, looked up): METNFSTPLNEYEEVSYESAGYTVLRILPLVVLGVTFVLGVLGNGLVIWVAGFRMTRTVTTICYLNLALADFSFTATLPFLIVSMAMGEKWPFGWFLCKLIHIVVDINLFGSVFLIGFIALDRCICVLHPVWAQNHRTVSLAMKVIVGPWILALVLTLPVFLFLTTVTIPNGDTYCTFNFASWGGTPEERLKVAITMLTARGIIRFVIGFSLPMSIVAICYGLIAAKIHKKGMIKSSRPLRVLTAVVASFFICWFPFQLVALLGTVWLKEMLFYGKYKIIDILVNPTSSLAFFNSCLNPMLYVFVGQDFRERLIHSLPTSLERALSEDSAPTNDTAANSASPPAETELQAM

Row | SMILES | Ki | IC50
1 | Cc1[nH]n2c(=O)c3c(nc2c1-c1cccc2ccccc12)CCC3 | > 40.3 µM | –
2 | CCOC(=O)c1c(C)[nH]c(C=Nc2ccccc2)c1O | > 40.3 µM | –
3 | O=c1cc(-c2ccccc2)nc(N2CCN(Cc3ccccc3)CC2)[nH]1 | > 40.3 µM | –
4 | CCOC(=O)c1c(NC(=O)c2cc(C3CC3)on2)sc2c1CCCC2 | > 40.3 µM | –
5 | O=C(C1=C(O)C(=O)N(Cc2ccco2)C1c1ccccc1)c1cccs1 (stereo unspecified) | > 40.3 µM | > 66.7 µM (inactive)
6 | CCOC(=O)CCn1nc(-c2ccc(Cl)cc2)cc1N | > 40.3 µM | –
7 | Cc1nc(C)c(C(=O)C2=C(O)C(=O)N(CCCn3ccnc3)C2c2ccc(Cl)cc2)s1 (stereo unspecified) | > 40.3 µM | > 66.7 µM (inactive)
8 | C/C(=C1/SC(N2CCCC2)=NC1=O)c1ccc(Br)cc1 | > 40.3 µM | > 66.7 µM (inactive)
9 | O=C(C1=C(O)C(=O)N(c2ncccn2)C1c1ccc(Cl)cc1)c1ccco1 (stereo unspecified) | > 40.3 µM | > 66.7 µM (inactive)
10 | COc1ccc(OC)c(C2C(C(=O)c3cccs3)=C(O)C(=O)N2c2cc(C)on2)c1 (stereo unspecified) | > 40.3 µM | > 66.7 µM (inactive)
11 | O=C1C(CCS(=O)c2ccccc2)C(=O)N(c2ccccc2)N1c1ccccc1 (stereo unspecified) | > 40.3 µM | > 66.7 µM (inactive)
12 | CCCOc1ccc(C2C(C(=O)c3ccco3)=C(O)C(=O)N2CCCn2ccnc2)cc1 (stereo unspecified) | > 40.3 µM | > 66.7 µM (inactive)
13 | COCCN1C(=O)C(O)=C(C(=O)c2cccs2)C1c1ccccc1 (stereo unspecified) | > 40.3 µM | > 66.7 µM (inactive)
14 | COc1ccc(-c2nc(N3CCCC3)[nH]c(=O)c2C#N)cc1 | > 40.3 µM | –
15 | CCOC(=O)c1cc(NC(=O)C2C3CCC(O3)C2C(=O)O)cc(C(=O)OCC)c1 (stereo unspecified) | > 40.3 µM | –
16 | CCOC(=O)CSc1nnc(CNC(=O)c2cc(OCC)c(OCC)c(OCC)c2)n1C | 6.7 µM | –
17 | CCC(CCC(=O)Nc1cccc(C(=O)O)c1)C(=O)O (stereo unspecified) | > 40.3 µM | –
18 | CCOC(=O)Cc1cc(=O)n2[nH]c(C)c(-c3ccccc3)c2n1 | > 40.3 µM | –
19 | CC1=C(C#N)C(c2ccc3ncccc3c2)C(C#N)=C(C)N1 | > 40.3 µM | > 66.7 µM (inactive)
20 | Cc1cc(SCC(N)=O)nc(SCC(=O)c2ccccc2)n1 | > 40.3 µM | –

Row | SMILES | Ki | IC50
21 | O=C(O)CC1Oc2ccc(Cl)cc2NC1=O (stereo unspecified) | > 40.3 µM | –
22 | CCOc1cc(C(=O)NCc2nnc(SCC(=O)OC)n2C)cc(OCC)c1OCC | 11.2 µM | –
23 | CSCCC1C(C#N)=C(N)Oc2n[nH]c(-c3cccs3)c21 (stereo unspecified) | > 40.3 µM | > 66.7 µM (inactive)
24 | Cc1ccc(NC(=O)C2C(=O)N(CCO)C3(C)CC2c2ccccc2O3)cc1 (stereo unspecified) | > 40.3 µM | –
25 | CCOC(=O)c1sc(=S)n2c1[nH]c(=O)c1ccc(C(=O)OC)cc12 | > 40.3 µM | –
26 | CCSc1nnc(NC(=O)CSc2nnc(Cc3cccn3C)n2CCc2ccccc2)s1 | > 40.3 µM | –
27 | O=C1CCCC(O)=C1C(C#Cc1ccccc1)C1=C(O)CCCC1=O | > 40.3 µM | > 66.7 µM (inactive)
28 | COc1ccc(OC)c(NC(=O)C2C3CCC(C3=C(C)C)C2C(=O)O)c1 (stereo unspecified) | > 40.3 µM | –
29 | CCC(Sc1nc2c(c(=O)[nH]1)CCC2)C(=O)Nc1cccc(OC)c1 (stereo unspecified) | > 40.3 µM | –
30 | COc1ccc(/C(O)=C2/C(=O)C(=O)N(c3nc(C)c(C)s3)C2c2ccco2)cc1 (stereo unspecified) | > 40.3 µM | > 66.7 µM (inactive)
31 | O=C(C1=C(O)C(=O)N(c2ncccn2)C1c1cccc(Cl)c1)c1ccco1 (stereo unspecified) | > 40.3 µM | > 66.7 µM (inactive)
32 | CCOc1cccc(/C(O)=C2/C(=O)C(=O)N(Cc3ccco3)C2c2ccncc2)c1 (stereo unspecified) | > 40.3 µM | > 66.7 µM (inactive)
33 | COc1cc(C2C(C(=O)c3ccco3)=C(O)C(=O)N2c2cc(C)on2)cc(Br)c1O (stereo unspecified) | > 40.3 µM | > 66.7 µM (inactive)
34 | CN1C(=O)/C(=C2\SC(=S)N(C(CCC(=O)O)C(=O)O)C2=O)c2ccccc21 (stereo unspecified) | > 40.3 µM | –
35 | CCOC(=O)c1c(-c2ccc(-c3ccccc3)cc2)csc1NC(=O)C1C2CCC(O2)C1C(=O)O (stereo unspecified) | > 40.3 µM | –
36 | CCN(CC)c1ccc(C=N/C(C#N)=C(\N)C#N)cc1 | > 40.3 µM | > 66.7 µM (inactive)
37 | COc1ccccc1C1/C(=C(/O)c2ccccc2)C(=O)C(=O)N1CC(C)O (stereo unspecified) | > 40.3 µM | > 66.7 µM (inactive)
38 | COc1ccc(-c2nc(-c3ccc(NC(=O)c4ccc(Br)o4)cc3)no2)cc1OC | > 40.3 µM | –
39 | Cc1nn(-c2nc3ccccc3s2)c(C)c1Oc1ccccc1O | > 40.3 µM | –
40 | COC(=O)Cc1[nH]nc2c1C(C1C=CCCC1)C(C#N)=C(N)O2 (stereo unspecified) | > 40.3 µM | > 66.7 µM (inactive)

Row | SMILES | Ki | IC50
41 | CCCC(=O)Nc1c2c(nn1-c1ccc(OC)cc1)CS(=O)C2 (stereo unspecified) | > 40.3 µM | –
42 | COc1ccc(-c2cc(C(F)(F)F)nc(N3CCCCC3)n2)cc1OC | > 40.3 µM | –
43 | COc1cc(C2C(C(=O)c3cccs3)=C(O)C(=O)N2Cc2ccco2)cc(OC)c1OC (stereo unspecified) | > 40.3 µM | > 66.7 µM (inactive)
44 | O=C1C(C23CC4CC(CC(C4)C2)C3)C(=O)N(c2ccccc2)N1c1ccccc1 | > 40.3 µM | > 66.7 µM (inactive)
45 | CCOc1ccc(C2C(C(=O)c3ccco3)=C(O)C(=O)N2CCCn2ccnc2)cc1 (stereo unspecified) | > 40.3 µM | > 66.7 µM (inactive)
46 | O=S(=O)(Nc1cccc2ncccc12)c1cccs1 | > 40.3 µM | –
47 | Cc1cccc(C2CC(c3ccc(Cl)cc3)Nc3nc(N)nn32)c1 (stereo unspecified) | > 40.3 µM | –
48 | CN(C)c1nc(N(C)C)nc(N(C)C)n1 | > 40.3 µM | –
49 | CCOc1ccc(C2C(C(=O)c3cccs3)=C(O)C(=O)N2CCCn2ccnc2)cc1 (stereo unspecified) | > 40.3 µM | > 66.7 µM (inactive)
50 | O=C(C1=C(O)C(=O)N(Cc2ccccc2)C1c1cccnc1)c1ccco1 (stereo unspecified) | > 40.3 µM | > 66.7 µM (inactive)
51 | CCc1nnc(NC(=O)CSc2nnc(-c3cc4ccccc4cc3O)n2CC)s1 | > 40.3 µM | –
52 | COc1ccccc1-n1c(CNC(=O)c2ccco2)nnc1SCC(=O)Nc1ccc(F)cc1 | > 40.3 µM | –
53 | Cc1ccc(Nc2ccc(C(=O)O)cc2N)cc1 | > 40.3 µM | –
54 | Cc1sc(NC(=O)C2CCCCC2C(=O)O)c(C(N)=O)c1-c1ccc(C(C)(C)C)cc1 (stereo unspecified) | > 40.3 µM | –
55 | O=C1N=c2ccccc2=C1c1sc(=S)n(CC2CCCO2)c1O (stereo unspecified) | > 40.3 µM | > 66.7 µM (inactive)
56 | COc1ccc(-c2nnc(Nc3nc4c(OC)cccc4s3)o2)cc1 | > 40.3 µM | –
57 | CCCNC(=S)Nc1ccc(Nc2ccccc2)cc1 | > 40.3 µM | –
58 | COc1cccc(/C(O)=C2/C(=O)C(=O)N(Cc3cccnc3)C2c2ccco2)c1 (stereo unspecified) | > 40.3 µM | > 66.7 µM (inactive)
59 | COc1cccc(C2/C(=C(\O)c3ccc(OC)c(OC)c3)C(=O)C(=O)N2c2cc(C)on2)c1 (stereo unspecified) | > 40.3 µM | > 66.7 µM (inactive)
60 | CCOc1ccc(/C(O)=C2/C(=O)C(=O)N(c3nc(C)c(C)s3)C2c2ccco2)cc1 (stereo unspecified) | > 40.3 µM | > 66.7 µM (inactive)

Further lines, results first:

Row | Ki | IC50 | SMILES
61 | > 40.3 µM | > 66.7 µM (inactive) | COCCCN1C(=O)C(=O)/C(=C(/O)c2ccccc2)C1c1ccc2c(c1)OCO2 (stereo unspecified)
62 | > 40.3 µM | > 66.7 µM (inactive) | Cc1ccc(/C(O)=C2/C(=O)C(=O)N(CCN3CCOCC3)C2c2cccnc2)cc1 (stereo unspecified)
63 | > 40.3 µM | > 66.7 µM (inactive) | COCCCN1C(=O)C(O)=C(C(=O)c2ccco2)C1c1ccc(Br)cc1 (stereo unspecified)
64 | > 40.3 µM | > 66.7 µM (inactive) | O=C(C1=C(O)C(=O)N(c2ncccn2)C1c1ccc(Cl)c(Cl)c1)c1ccco1 (stereo unspecified)
65 | > 40.3 µM | > 66.7 µM (inactive) | O=C(C1=C(O)C(=O)N(CC2CCCO2)C1c1cccnc1)c1ccco1 (stereo unspecified)
66 | > 40.3 µM | – | COC(=O)COc1ccc2c(=O)c(Oc3ccccc3)c(C)oc2c1
67 | > 40.3 µM | > 66.7 µM (inactive) | COc1cc(C2C(C(=O)c3ccc(C)o3)=C(O)C(=O)N2CCc2ccccc2)ccc1O (stereo unspecified)
68 | > 40.3 µM | > 66.7 µM (inactive) | COc1ccc(C2C(C(=O)c3ccco3)=C(O)C(=O)N2CCc2ccccc2)cc1OC (stereo unspecified)
69 | > 40.3 µM | – | CCOC(=O)N1CCC(NC(=O)c2cc(C(=O)Nc3ccc(OC)c(OC)c3)ccc2CO)CC1
70 | > 40.3 µM | > 66.7 µM (inactive) | CCOc1ccc(/C(O)=C2/C(=O)C(=O)N(CC3CCCO3)C2c2ccco2)cc1 (stereo unspecified)
71 | > 40.3 µM | – | COc1ccc(Cl)cc1-n1c(=S)sc2c(=O)[nH]c(SCC(=O)NCC3CCCO3)nc21 (stereo unspecified)
72 | > 40.3 µM | > 66.7 µM (inactive) | C=CCN1C(=O)C2(/C(=C(\O)c3ccc4c(c3)OCCO4)C(=O)C(=O)N2CCCOC)c2ccccc21 (stereo unspecified)
73 | > 40.3 µM | – | CC1CCN(S(=O)(=O)c2ccc3c(c2)oc(=O)n3CC(=O)NCc2ccc3c(c2)OCO3)CC1
74 | > 40.3 µM | – | Cc1c(C(=O)NC2CCCc3ccccc32)oc2ccc(S(=O)(=O)N3CCOCC3)cc12 (stereo unspecified)
75 | > 40.3 µM | > 66.7 µM (inactive) | COc1ccc(C2C(C(=O)c3ccco3)=C(O)C(=O)N2Cc2cccnc2)cc1OC (stereo unspecified)
76 | > 40.3 µM | > 66.7 µM (inactive) | COc1cccc2cc(C(=O)C3=C(O)C(=O)N(Cc4ccco4)C3c3cccnc3)oc12 (stereo unspecified)
77 | > 40.3 µM | > 66.7 µM (inactive) | COc1ccc(OC)c(C2C(C(=O)c3ccco3)=C(O)C(=O)N2CCCN2CCOCC2)c1 (stereo unspecified)
78 | > 40.3 µM | – | CCOC(=O)Cc1cc(=O)n2[nH]c(C)c(-c3ccc(Cl)cc3)c2n1
79 | > 40.3 µM | – | CCCOc1ccc2c(=O)c(N3C(=O)c4ccccc4C3=O)c(C)oc2c1
80 | > 40.3 µM | > 66.7 µM (inactive) | COc1cc(C2C(C(=O)c3ccco3)=C(O)C(=O)N2CCc2ccccc2)ccc1O (stereo unspecified)
81 | > 40.3 µM | – | O=C(Cn1c(=O)oc2ccccc21)N1CCN(c2ccccc2)CC1
82 | 6.6 µM | – | O=C(O)CCCNc1cc(N2CCC3(CC2)OCCO3)c2noc3c2c1C(=O)c1ccccc1-3
83 | > 40.3 µM | – | CC1Oc2ccccc2N(Cc2ccccc2Cl)C1=O (stereo unspecified)
84 | > 40.3 µM | > 66.7 µM (inactive) | CCCOc1ccc(C2C(C(=O)c3ccc(C)o3)=C(O)C(=O)N2Cc2cccnc2)cc1 (stereo unspecified)
85 | > 40.3 µM | – | Cc1oc2cc(O)cc(O)c2c(=O)c1-c1ccc2c(c1)OCCCO2
86 | > 40.3 µM | – | CCCCCNC(=O)c1ccc2c(=O)[nH]c3c(C(=O)NCC4CCCO4)sc(=S)n3c2c1 (stereo unspecified)
87 | > 40.3 µM | – | O=C(NC1CCCCC1)c1sc(=S)n2c1[nH]c(=O)c1ccccc12
88 | > 40.3 µM | – | COCCN1Cc2cccc(C(=O)NCc3ccc4c(c3)OCO4)c2C1=O
89 | > 40.3 µM | > 66.7 µM (inactive) | CCOc1cccc(/C(O)=C2/C(=O)C(=O)N(Cc3cccnc3)C2c2ccco2)c1 (stereo unspecified)
